From the SangsterLogP compilation come the findings set out here.

Structures are written as SMILES.

A short description of the first data set: method code SF-AS, from Ganga, L. X. J. S., & Zun-Yaob, L. H. W. (2009). Determination of lgKow and QSPR Study on Some Fluorobenzene Derivatives. Jiegou Huaxue, 28(10).
Settings: not given
`Oc1ccc(F)cc1F`: the logP amounted to 1.9.

Regarding `Fc1ccccc1F`, the logP was 2.1.

For `Fc1ccc(F)c(F)c1`, the logP is 2.34.

For `Fc1cc(F)c(F)cc1F`, the logP turned out to be 2.44.

The nature of the next data set: method code SF-CR+AS, from DOI: 10.1016/s0003-2670(00)84151-3.
Settings: not given
Consider `Cc1ccc(C(N)=S)cc1`, for which the logP stood at 2.01.

In the case of `NC(=S)c1ccc([N+](=O)[O-])cc1`, the logP was determined as 1.75.

With `COc1ccc(C(N)=S)cc1`, the logP was 1.63.

Take `NC(=S)c1ccc(Cl)cc1`: the logP is 2.4.

The next data set in a line: method code SF, from DOI: 10.1021/jm00378a018, PMID: 6389865. As to conditions: pH 7.0.
As for `O=[N+]([O-])c1cnc(NC(CO)C(O)CO)cn1` (stereo not given), the logD was -0.89.

Turning to `COC(=O)c1nc(NCC(O)CO)cnc1[N+](=O)[O-]` (stereo not given), the logD is -0.1.

`Nc1nc(NCCO)c(Cl)nc1[N+](=O)[O-]`: the pH-dependent lipophilicity (logD) was found to be 0.12.

The compound `O=[N+]([O-])c1nccnc1NCC(O)CO` (stereo not given) returned a logD of -0.49.

Assay in the next data set: not given
Settings: not given
On to `NC(=S)N/N=C/c1ccc([N+](=O)[O-])o1`, for which the logP stood at 1.64.

Compound `CCS(=O)(=O)CCn1c([N+](=O)[O-])cnc1C` registered a logP of -0.38.

`O=[N+]([O-])c1ccc(/C=N\O)o1` had a logP of 0.3.

Compound `NC(=S)N/N=C\c1ccco1` had a logP of 1.64.

The next data set is described as follows: method code SF-RC, from DOI: 10.1002/ps.2780130506.
Settings: not given
`CNC(=O)O/N=C/c1ccccc1` gave a logP of 1.49.

Compound `CNC(=O)ON=C(C)C` returned a logP of -0.13.

On to `CNC(=O)ON=Cc1ccc(Cl)cc1`, for which the logP was 2.27.

As to `NC(=O)Nc1ccc(Oc2ccc(Br)cc2)cc1`, the logP worked out at 3.7.

The nature of another data set: method code SF-HPLC, from DOI: 10.1016/0378-5173(82)90005-9. As to conditions: pH 3.0.
In turn, `O=C1NC(=O)C2(CCCCC2)C(=O)N1` displayed a logD of 0.91.

As to `O=C1NC(=O)C2(CCCCCCCCCC2)C(=O)N1`, the logD came out at 3.15.

Consider `O=C1NC(=O)C2(CC2)C(=O)N1`, for which the logD is -0.53.

`O=C1NC(=O)C2(CCCC2)C(=O)N1` registered a logD of 0.24.

A further data set can be described thus: method code SF, from DOI: 10.1021/js9700917, PMID: 9452977. As to conditions: pH 5.5.
`NS(=O)(=O)c1ccncn1` displayed a logD of -0.2.

`CC(=O)Nc1ccc(S(=O)(=O)Nc2nc(C)c(C)o2)cc1`: the logD was 0.46.

In turn, `NC(=S)NS(=O)(=O)c1ccc(N)cc1` came in with a logD of 0.52.

In turn, `CC(=O)Nc1ccc(S(=O)(=O)Nc2cc(C)nc(C)n2)cc1` had a logD of -0.14.

Assay in another data set: not given
Settings: not given
The source holds these as a separate data set.
Turning to `CCCCCCC(C)O` (stereo not given), the logP stood at 2.9.

Regarding `CC1CCCC(C)C1O` (stereo not given), the logP came to 2.37.

Compound `C[C@@H]1CCCC[C@H]1O` came in with a logP of 1.82.

Compound `CCCC(O)CC` (stereo not given) showed a logP of 1.65.

Another data set is described as follows: method code SF-GLC, from Boikov, Yu.; Shibaev, V.; Gaidamaka, V.; V'yunov, K. (1989). Study of correlation between extraction characteristics of glycidyl ethers and theri structure. 62(1)177-179.
Settings: not given
Take `CCCCOCC1CO1` (stereo not given): the logP worked out at 0.55.

Compound `CC(C)OCC1CO1` (stereo not given) came in with a logP of 0.8.

`CCCOCC1CO1` (stereo not given) registered a logP of 0.5.

`COCC1CO1` (stereo not given): the logP was 0.03.

Assay in a further data set: not given
Settings: not given
This is another data set of the same source.
Compound `Cc1ccc(Cl)cc1O` showed a logP of 2.63.

Compound `COc1cccc(Cl)c1` yielded a logP of 2.98.

Take `COc1ccc(OC)cc1`: the logP amounted to 2.03.

Consider `COc1ccc(N)c([N+](=O)[O-])c1`, for which the logP turned out to be 1.86.

Assay in the next data set: not given
Settings: not given
The source holds these as a separate data set.
`O=C(O)c1cc(Br)nc(Br)c1` registered a logP of 2.8.

As for `O=C(O)c1cc(Cl)nc(Cl)c1`, the logP turned out to be 2.6.

In turn, `O=C(O)c1nc(Cl)ccc1Cl` displayed a logP of 1.06.

For `CCOC(=O)c1cc(Cl)nc(Cl)c1`, the logP was found to be 3.6.

Assay in the next data set: not given
Settings: not given
The source holds these as a separate data set.
In turn, `COc1ccc(C)cc1N` gave a logP of 1.74.

Regarding `Nc1ccc(Sc2ccccc2)cc1`, the logP was determined as 2.18.

On to `Nc1cccc2cccnc12`, for which the logP came to 1.79.

Take `Nc1ccc(Cl)cc1N`: the logP was 1.28.

A further data set is described as follows: method code SF, from DOI: 10.1016/j.jiec.2010.03.003.
Settings: not given
For the compound `CCC(C)(C)OC`, the logP turned out to be 1.81.

In turn, `C=COCCC` returned a logP of 2.

`CC(C)OC(C)C` gave a logP of 1.94.

Turning to `CCOC(C)(C)C`, the logP turned out to be 1.71.

A further data set in a line: method code SF-HPLC, from DOI: 10.1007/bf00269028, PMID: 6488439.
Settings: not given
The compound `Nc1ccn(C2OC(CCl)C(O)C2O)c(=O)n1` (stereo not given) had a logP of -1.05.

Regarding `Cc1c[nH]c(=O)[nH]c1=O`, the logP is -0.57.

Turning to `Nc1cc[nH]c(=O)n1`, the logP is -1.49.

`Nc1ccn([C@@H]2O[C@@H]3CO[C@H]2[C@@H]3O)c(=O)n1` yielded a logP of -1.64.

The nature of the next data set: method code SF-GLC, from DOI: 10.1007/bf00343116, PMID: 4026577.
Settings: not given
The compound `N#CCCCC#N` had a logP of -0.72.

With `N#CCCCCCCCCC#N`, the logP was 1.75.

Take `N#CCCCCC#N`: the logP was -0.32.

For `N#CCCC#N`, the logP is -0.99.

A short description of a further data set: method code SF-AS, from DOI: 10.1007/s001289900158, PMID: 8661463.
Settings: not given
`Clc1ccc(Cl)nn1` came in with a logP of 0.93.

`NNc1nc(NN)nc(Nc2ccccc2)n1`: the logP amounted to 1.07.

Turning to `O=[N+]([O-])c1c(Cl)ncnc1Cl`, the logP is 0.45.

A further data set can be described thus: method code SF-HPLC, from DOI: 10.1002/jps.2600750520, PMID: 3735094. Conditions: pH 4.0.
As for `CC(C)COC(=O)n1cc(F)c(=O)[nH]c1=O`, the logD was found to be 0.87.

Compound `CCOC(=O)n1cc(F)c(=O)[nH]c1=O` showed a logD of -0.17.

The compound `CCCCOC(=O)n1cc(F)c(=O)[nH]c1=O` registered a logD of 0.89.

Take `COC(=O)n1cc(F)c(=O)[nH]c1=O`: the logD was -0.68.

A short description of another data set: method code SF-GLC, from DOI: 10.1016/s0021-9673(01)83612-8. Conditions: pH 13.0.
In turn, `CC1Cc2ccccc2CN1` (stereo not given) yielded a logD of 1.93.

Assay in another data set: not given
Settings: not given
This is another data set of the same source.
`CCCCCCN1CC(C(=O)O)CC1=O` (stereo not given) had a logP of 1.6.

In the case of `CCCCCCN1CCCC1=O`, the logP was found to be 2.6.

`CN1CC(C(=O)O)CC1=O` (stereo not given) showed a logP of -1.5.

Regarding `CCCCCCCCCCCCN1CC(C(=O)OC)CC1=O` (stereo not given), the logP is 4.

A further data set can be described thus: method code SF-RC, from DOI: 10.1021/jm901332c, PMID: 19921956. As to conditions: pH 7.4.
`Cn1cnc2ncnc(Br)c21` came in with a logD of 0.2.

Consider `Cn1cnc2ncnc(Cl)c21`, for which the logD was 0.03.

`Cn1cnc2c(F)ncnc21` returned a pH-dependent lipophilicity (logD) of 0.11.

For `Cn1cnc2ncnc(F)c21`, the logD was -0.62.

Assay in another data set: not given
Settings: not given
This is another data set of the same source.
For `O=[N+]([O-])c1cccc(O)c1`, the logP came to 1.88.

On to `N#Cc1ccccc1[N+](=O)[O-]`, for which the logP came to 1.16.

Take `Clc1ccccc1`: the logP is 2.73.

As to `N#Cc1ccc([N+](=O)[O-])cc1`, the logP is 1.25.

Assay in the next data set: not given
Settings: not given
The source holds these as a separate data set.
Turning to `COc1c(Br)cc(Br)cc1Br`, the logP was 4.48.

Take `ClC(Cl)=C(Cl)c1c(Cl)c(Cl)c(Cl)c(Cl)c1Cl`: the logP came out at 6.29.

Compound `Clc1ccc2c(ccc3ccccc32)c1` displayed a logP of 5.16.

Compound `CCNc1nc(Cl)nc(NC(C)C)n1` displayed a logP of 2.63.

A short description of a further data set: method code SF, from DOI: 10.1016/s0045-6535(97)00338-x.
Settings: not given
With `CC(=O)c1ccc(F)cc1`, the logP came to 1.74.

`CC(=O)c1cc(F)c(Cl)cc1Cl` had a logP of 3.4.

The compound `Nc1ccc(F)c(F)c1F` came in with a logP of 2.14.

Consider `Nc1ccc(F)cc1`, for which the logP was 1.18.

Assay in the next data set: not given
Settings: not given
This is another data set of the same source.
On to `Fc1cccc(F)c1`, for which the logP is 2.33.

Turning to `Nc1c(F)cccc1F`, the logP is 1.61.

On to `OCc1ccccc1I`, for which the logP is 2.43.

The compound `OCc1ccccc1Br` came in with a logP of 2.08.

A short description of a further data set: method code SF-AS, from DOI: 10.1016/0378-5173(82)90004-7. As to conditions: pH 3.0.
The compound `O=C1NC(=O)C(c2ccccc2)(c2ccccc2)C(=O)N1` returned a logD of 1.96.

In turn, `CC1(c2ccccc2)C(=O)NC(=O)NC1=O` displayed a log distribution coefficient (logD) of 0.91.

The compound `C=CCC1(C)C(=O)NC(=O)NC1=O` gave a logD of 0.36.

The compound `CCC1(C)C(=O)NC(=O)NC1=O` showed a log distribution coefficient (logD) of 0.08.

Assay in another data set: not given
Settings: not given
The source holds these as a separate data set.
With `CCN(CC)c1nc(C)cc(OP(=S)(OC)OC)n1`, the logP was determined as 3.8.

On to `CN(C)C(=O)Nc1ccccc1`, for which the logP is 1.18.

`CCOC(=O)CC(SP(=S)(OC)OC)C(=O)OCC` (stereo not given) showed a logP of 2.18.

Compound `COP(=S)(OC)Oc1nc(Cl)c(Cl)cc1Cl` gave a logP of 3.99.
